Assay results taken from patent US12139492B2 (Endotarget Inc., priority 2021, dated 2024).

Key:
Type in all cases: cell-based
Mino cells = assay: Antiproliferative effect, MTS cell viability assay, Mino cells; settings: Homo sapiens, MINO, Mino mantle cell lymphoma cells; read-out: IC50 (anti-proliferation) Mino cells
In short: (§1)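 MTS read-out, A490 of formazan from metabolically active cells; compound 0–10 μM (0, 0.001, 0.01, 0.1, 1, 10 μM), 72 h exposure.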

JeKo-1 cells = assay: Antiproliferative effect, MTS cell viability assay, JeKo-1 cells; settings: Homo sapiens; JeKo-1 mantle cell lymphoma cells; read-out: IC50 (anti-proliferation) JeKO-1 cells
In short: as §1

BTK = BTK (Homo sapiens, UniProt Q06187); assay: BTK degradation, DC50 and Dmax of Table 1 (cell line not given); design: endogenous in cells; settings: for DC50: concentration giving 50% reduction of BTK expression level
BTK, sequence (Q06187 whole entry): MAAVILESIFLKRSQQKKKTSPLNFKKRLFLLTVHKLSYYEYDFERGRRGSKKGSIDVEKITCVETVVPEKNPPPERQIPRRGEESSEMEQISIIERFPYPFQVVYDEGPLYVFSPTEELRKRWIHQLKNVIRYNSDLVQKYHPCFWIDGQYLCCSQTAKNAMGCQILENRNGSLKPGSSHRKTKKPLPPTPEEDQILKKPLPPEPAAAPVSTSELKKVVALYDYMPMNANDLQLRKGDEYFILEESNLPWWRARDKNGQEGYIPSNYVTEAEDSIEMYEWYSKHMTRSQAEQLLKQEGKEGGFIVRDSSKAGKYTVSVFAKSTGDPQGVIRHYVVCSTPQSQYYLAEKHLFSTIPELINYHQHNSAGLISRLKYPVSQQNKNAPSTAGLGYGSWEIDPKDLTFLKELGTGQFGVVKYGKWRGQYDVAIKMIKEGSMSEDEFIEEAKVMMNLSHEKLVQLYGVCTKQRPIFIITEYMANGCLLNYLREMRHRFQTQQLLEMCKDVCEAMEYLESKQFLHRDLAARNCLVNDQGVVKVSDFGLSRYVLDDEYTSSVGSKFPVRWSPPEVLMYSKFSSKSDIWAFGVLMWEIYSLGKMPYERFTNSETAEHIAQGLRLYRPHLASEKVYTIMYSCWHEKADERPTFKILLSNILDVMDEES

Dmax (BTK)	DC50 (BTK)	Structure (SMILES)	IC50 (Mino cells)	IC50 (JeKo-1 cells)
> 75%	< 10 nM	Nc1ncnc2c1c(-c1ccc(Oc3ccccc3)cc1)nn2[C@@H]1CCCN(CC2CCN(CCN3CCC(c4ccc5c(c4)CN(C4CCC(=O)NC4=O)C5=O)CC3)CC2)C1 (stereo partly drawn) [Compound 136, 3-(5-(1-(2-(4-(((R)-3-(4-amino-3-(4-phenoxyphenyl)-1H-pyrazolo[3,4-d]pyrimidin-1-yl)piperidin-1-yl)methyl)piperidin-1-yl)ethyl)piperidin-4-yl)-1-oxoisoindolin-2-yl)piperidine-2,6-dione]	< 1000 nM	1000 to 10000 nM
> 75%	10 to 50 nM	Nc1ncnc2c1c(-c1ccc(Oc3ccccc3)cc1)nn2[C@@H]1CCCN(CC2CCN(CCCN3CCC(c4ccc5c(c4)CN(C4CCC(=O)NC4=O)C5=O)CC3)CC2)C1 (stereo partly drawn) [Compound 140, 3-(5-(1-(3-(4-(((R)-3-(4-amino-3-(4-phenoxyphenyl)-1H-pyrazolo[3,4-d]pyrimidin-1-yl)piperidin-1-yl)methyl)piperidin-1-yl)propyl)piperidin-4-yl)-1-oxoisoindolin-2-yl)piperidine-2,6-dione]	1000 to 10000 nM	> 10000 nM
> 75%	> 50 nM	Nc1ncnc2c1c(-c1ccc(Oc3ccccc3)cc1)nn2[C@@H]1CCCN(CC2CCN(CCCC3CCN(c4ccc5c(c4)C(=O)N(C4CCC(=O)NC4=O)C5=O)CC3)CC2)C1 (stereo partly drawn) [Compound 141, 5-(4-(3-(4-(((R)-3-(4-amino-3-(4-phenoxyphenyl)-1H-pyrazolo[3,4-d]pyrimidin-1-yl)piperidin-1-yl)methyl)piperidin-1-yl)propyl)piperidin-1-yl)-2-(2,6-dioxopiperidin-3-yl)isoindoline-1,3-dione]	1000 to 10000 nM	1000 to 10000 nM
> 75%	10 to 50 nM	Nc1ncnc2c1c(-c1ccc(Oc3ccccc3)cc1)nn2[C@@H]1CCCN(CC2CCN(CCCC3CCN(c4ccc5c(c4)CN(C4CCC(=O)NC4=O)C5=O)CC3)CC2)C1 (stereo partly drawn) [Compound 142, 3-(5-(4-(3-(4-(((R)-3-(4-amino-3-(4-phenoxyphenyl)-1H-pyrazolo[3,4-d]pyrimidin-1-yl)piperidin-1-yl)methyl)piperidin-1-yl)propyl)piperidin-1-yl)-1-oxoisoindolin-2-yl)piperidine-2,6-dione]	1000 to 10000 nM	> 10000 nM
> 90%	10 to 50 nM	Nc1ncnc2c1c(-c1ccc(Oc3ccccc3)cc1)nn2[C@@H]1CCCN(C2CCN(CC3CCN(c4ccc5c(c4)C(=O)N(C4CCC(=O)NC4=O)C5=O)CC3)CC2)C1 (stereo partly drawn) [Compound 143, 5-(4-(((R)-3-(4-amino-3-(4-phenoxyphenyl)-1H-pyrazolo[3,4-d]pyrimidin-1-yl)-[1,4′-bipiperidin]-1′-yl)methyl)piperidin-1-yl)-2-(2,6-dioxopiperidin-3-yl)isoindoline-1,3-dione]	> 10000 nM	> 10000 nM
> 75%	> 50 nM	Nc1ncnc2c1c(-c1ccc(Oc3ccccc3)cc1)nn2[C@@H]1CCCN(C2CCN(CCC3CCN(c4ccc5c(c4)C(=O)N(C4CCC(=O)NC4=O)C5=O)CC3)CC2)C1 (stereo partly drawn) [Compound 145, 5-(4-(2-((R)-3-(4-amino-3-(4-phenoxyphenyl)-1H-pyrazolo[3,4-d]pyrimidin-1-yl)-[1,4′-bipiperidin]-1′-yl)ethyl)piperidin-1-yl)-2-(2,6-dioxopiperidin-3-yl)isoindoline-1,3-dione]	> 10000 nM	> 10000 nM
> 75%	10 to 50 nM	Nc1ncnc2c1c(-c1ccc(Oc3ccccc3)cc1)nn2[C@@H]1CCCN(C2CCN(CCN3CCN(c4ccc5c(c4)C(=O)N(C4CCC(=O)NC4=O)C5=O)CC3)CC2)C1 (stereo partly drawn) [Compound 147, 5-(4-(2-((R)-3-(4-amino-3-(4-phenoxyphenyl)-1H-pyrazolo[3,4-d]pyrimidin-1-yl)-[1,4′-bipiperidin]-1′-yl)ethyl)piperazin-1-yl)-2-(2,6-dioxopiperidin-3-yl)isoindoline-1,3-dione]	> 10000 nM	> 10000 nM
> 75%	10 to 50 nM	Nc1ncnc2c1c(-c1ccc(Oc3ccccc3)cc1)nn2[C@@H]1CCCN(C2CCN(CCN3CCN(c4ccc5c(c4)CN(C4CCC(=O)NC4=O)C5=O)CC3)CC2)C1 (stereo partly drawn) [Compound 148, 3-(5-(4-(2-((R)-3-(4-amino-3-(4-phenoxyphenyl)-1H-pyrazolo[3,4-d]pyrimidin-1-yl)-[1,4′-bipiperidin]-1′-yl)ethyl)piperazin-1-yl)-1-oxoisoindolin-2-yl)piperidine-2,6-dione]	1000 to 10000 nM	> 10000 nM

The next lines start with the compound.

Structure (SMILES)	Dmax (BTK)	DC50 (BTK)	IC50 (Mino cells)	IC50 (JeKo-1 cells)
Nc1ncnc2c1c(-c1ccc(Oc3ccccc3)cc1)nn2[C@@H]1CCCN(CC2CCN(CCN3CCN(c4ccc5c(c4)C(=O)N(C4CCC(=O)NC4=O)C5=O)CC3)CC2)C1 (stereo partly drawn) [Compound 133, 5-(4-(2-(4-(((R)-3-(4-amino-3-(4-phenoxyphenyl)-1H-pyrazolo[3,4-d]pyrimidin-1-yl)piperidin-1-yl)methyl)piperidin-1-yl)ethyl)piperazin-1-yl)-2-(2,6-dioxopiperidin-3-yl)isoindoline-1,3-dione]	> 90%	10 to 50 nM	< 1000 nM	1000 to 10000 nM
Nc1ncnc2c1c(-c1ccc(Oc3ccccc3)cc1)nn2[C@@H]1CCCN(CC2CCN(CCN3CCN(c4ccc5c(c4)CN(C4CCC(=O)NC4=O)C5=O)CC3)CC2)C1 (stereo partly drawn) [Compound 134, 3-(5-(4-(2-(4-(((R)-3-(4-amino-3-(4-phenoxyphenyl)-1H-pyrazolo[3,4-d]pyrimidin-1-yl)piperidin-1-yl)methyl)piperidin-1-yl)ethyl)piperazin-1-yl)-1-oxoisoindolin-2-yl)piperidine-2,6-dione]	> 75%	10 to 50 nM	1000 to 10000 nM	1000 to 10000 nM
Nc1ncnc2c1c(-c1ccc(Oc3ccccc3)cc1)nn2[C@@H]1CCCN(CC2CCN(CCN3CCC(c4ccc5c(c4)C(=O)N(C4CCC(=O)NC4=O)C5=O)CC3)CC2)C1 (stereo partly drawn) [Compound 135, 5-(1-(2-(4-(((R)-3-(4-amino-3-(4-phenoxyphenyl)-1H-pyrazolo[3,4-d]pyrimidin-1-yl)piperidin-1-yl)methyl)piperidin-1-yl)ethyl)piperidin-4-yl)-2-(2,6-dioxopiperidin-3-yl)isoindoline-1,3-dione]	> 90%	< 10 nM	< 1000 nM	1000 to 10000 nM
Nc1ncnc2c1c(-c1ccc(Oc3ccccc3)cc1)nn2[C@@H]1CCCN(CC2CCN(CCCN3CCN(c4ccc5c(c4)C(=O)N(C4CCC(=O)NC4=O)C5=O)CC3)CC2)C1 (stereo partly drawn) [Compound 137, 5-(4-(3-(4-(((R)-3-(4-amino-3-(4-phenoxyphenyl)-1H-pyrazolo[3,4-d]pyrimidin-1-yl)piperidin-1-yl)methyl)piperidin-1-yl)propyl)piperazin-1-yl)-2-(2,6-dioxopiperidin-3-yl)isoindoline-1,3-dione]	> 75%	10 to 50 nM	> 10000 nM	> 10000 nM
Nc1ncnc2c1c(-c1ccc(Oc3ccccc3)cc1)nn2[C@@H]1CCCN(CC2CCN(CCCN3CCN(c4ccc5c(c4)CN(C4CCC(=O)NC4=O)C5=O)CC3)CC2)C1 (stereo partly drawn) [Compound 138, 3-(5-(4-(3-(4-(((R)-3-(4-amino-3-(4-phenoxyphenyl)-1H-pyrazolo[3,4-d]pyrimidin-1-yl)piperidin-1-yl)methyl)piperidin-1-yl)propyl)piperazin-1-yl)-1-oxoisoindolin-2-yl)piperidine-2,6-dione]	> 75%	10 to 50 nM	1000 to 10000 nM	> 10000 nM
Nc1ncnc2c1c(-c1ccc(Oc3ccccc3)cc1)nn2[C@@H]1CCCN(CC2CCN(CCCN3CCC(c4ccc5c(c4)C(=O)N(C4CCC(=O)NC4=O)C5=O)CC3)CC2)C1 (stereo partly drawn) [Compound 139, 5-(1-(3-(4-(((R)-3-(4-amino-3-(4-phenoxyphenyl)-1H-pyrazolo[3,4-d]pyrimidin-1-yl)piperidin-1-yl)methyl)piperidin-1-yl)propyl)piperidin-4-yl)-2-(2,6-dioxopiperidin-3-yl)isoindoline-1,3-dione]	> 75%	10 to 50 nM	> 10000 nM	> 10000 nM
Nc1ncnc2c1c(-c1ccc(Oc3ccccc3)cc1)nn2[C@@H]1CCCN(C2CCN(CC3CCN(c4ccc5c(c4)CN(C4CCC(=O)NC4=O)C5=O)CC3)CC2)C1 (stereo partly drawn) [Compound 144, 3-(5-(4-(((R)-3-(4-amino-3-(4-phenoxyphenyl)-1H-pyrazolo[3,4-d]pyrimidin-1-yl)-[1,4′-bipiperidin]-1′-yl)methyl)piperidin-1-yl)-1-oxoisoindolin-2-yl)piperidine-2,6-dione]	> 90%	10 to 50 nM	1000 to 10000 nM	> 10000 nM
Nc1ncnc2c1c(-c1ccc(Oc3ccccc3)cc1)nn2[C@@H]1CCCN(C2CCN(CCC3CCN(c4ccc5c(c4)CN(C4CCC(=O)NC4=O)C5=O)CC3)CC2)C1 (stereo partly drawn) [Compound 146, 3-(5-(4-(2-((R)-3-(4-amino-3-(4-phenoxyphenyl)-1H-pyrazolo[3,4-d]pyrimidin-1-yl)-[1,4′-bipiperidin]-1′-yl)ethyl)piperidin-1-yl)-1-oxoisoindolin-2-yl)piperidine-2,6-dione]	> 75%	> 50 nM	1000 to 10000 nM	> 10000 nM
Nc1ncnc2c1c(-c1ccc(Oc3ccccc3)cc1)nn2[C@@H]1CCCN(C2CCN(CCN3CCC(c4ccc5c(c4)C(=O)N(C4CCC(=O)NC4=O)C5=O)CC3)CC2)C1 (stereo partly drawn) [Compound 149, 5-(1-(2-((R)-3-(4-amino-3-(4-phenoxyphenyl)-1H-pyrazolo[3,4-d]pyrimidin-1-yl)-[1,4′-bipiperidin]-1′-yl)ethyl)piperidin-4-yl)-2-(2,6-dioxopiperidin-3-yl)isoindoline-1,3-dione]	> 90%	10 to 50 nM	1000 to 10000 nM	> 10000 nM
